Measurements from US10894794B1, “Substituted [1,2,4]triazolo[4,3-a]pyrazines as antidiabetics” (King Abdulaziz University, priority 2019, dated 2021).
Marks after values point to notes of the source that are not given here.

Tests used:
Type in all cases: in vivo
STZ-diabetic mice = assay: Fasting blood glucose of diabetic mice during six days of treatment; settings: for activity in controlling the rise of blood glucose levels in streptozotocin diabetic animals (in words) / control of fasting blood sugar compared with sitagliptin and the other compounds (in words): 50 mg/kg/day; for activity in controlling the rise of blood glucose levels in streptozotocin diabetic animals (in words): 6-day interval; for control of fasting blood sugar compared with sitagliptin and the other compounds (in words): 6 days; for Blood glucose level, fasting: 50 mg/kg/day oral, diabetic mice, mean ± SEM
From the text: Our objective was to test the efficacy of the synthesized compounds for their potential to reduce blood glucose in STZ-diabetic mice. The synthesized compounds Nos. 128, 129, 130, 131,140, 142 were expected to act through the inhibition of the DPP-IV enzyme, which is responsible for the degradation of the entero-peptide GLP-I. In turn, GLP-I increases insulin and decreases glucagon release from the pancreatic islets (β and α-cells respectively). So this part of the project was designed to study the effect of the synthesized gliptin simulated compounds on blood glucose levels and their efficacy to increase glucose utilization in diabetic mice through: • a. The effect of the tested compounds in a dose of 50 mg/kg/day on fasting blood glucose blood levels of diabetic mice during six days of treatment. • b. Oral glucose tolerance test (OGTT) through oral glucose loading, 2 h after treatment with single oral dose (50 mg/kg) of the tested compounds in 14 h overnight fasted mice. • c. OGTT through oral glucose loading, 2 h after treatment with the 6th oral dose (50 mg/kg) of the tested compounds in 14 h overnight fasted mice. • d. The effect of the pretreatment with the tested compounds at an oral dose of 50 mg/kg on blood glucose levels, 3 h before and 3 h after meal feeding (feeding for one hour only, then food was removed immediately) in 14 h overnight-fasted diabetic mice.
(§1) Blood samples were collected from the tail vein and the blood glucose level was determined. Curves of blood glucose levels (mg/dL) versus the time intervals (min) were constructed and the area under the curves (AUCs) were calculated by the method of calculation embedded in GraphPad Prism® v. 5.0 (GraphPad Software, San Diego, Calif., USA). AUCs of the curves of the different groups were compared and tested for significance against control groups.
All data are presented as means±SEM. Statistical significance was evaluated by analysis of variance (ANOVA) followed by Tukey-Kramer's post hoc test for multiple comparisons. The “t” of the paired data was used to test the significance of the values of the fasting blood glucose compared to the values before treatment. Statistical significance was accepted at a level of p<0.05.

[1] = tested on: 14 h overnight fasted diabetic mice; assay: Oral glucose tolerance test (OGTT) after single dose; settings: for glucose-lowering activity in OGTT compared with sitagliptin (in words): single dose 50 mg/kg; for Relative potency to sitagliptin (OGTT AUC) / AUC in OGTT, % change from diabetic control / AUC in OGTT, Δ from diabetic control / AUC in OGTT, X (arithmetic mean): single oral dose 50 mg/kg; for AUC in OGTT, X (arithmetic mean): AUC 0-120 min
Method: The oral glucose tolerance test was done in 14 h overnight fasted diabetic mice that were pretreated with a single oral dose of the tested compounds. Each of the tested agents was suspended in sodium carboxymethyl cellulose (CMC-Na) (1% in distilled water) and the dosing volume was adjusted to 10 ml/kg body weight per mouse. Then an oral glucose load was administered (2 g/kg) 2 h after drug treatment. Blood glucose levels were determined using the Accu-check Go® (Roche Diagnostics, Michigan, USA). Blood samples were collected just before drug administration (Fasting Blood glucose), then 2 h after drug treatment and before glucose loading. Blood samples collection was continued at 20, 40, 60 and 120 min intervals after glucose loading.
Animals were distributed between 17 groups (n=6) as follow: • a. Group 1: Animals were 14 h overnight-fasted normoglycemic mice and vehicle-treated (1% CMC-Na) at a dose of 10 ml/kg. • b. Group 2: Overnight fasted diabetic mice received the vehicle (1% CMC-Na) at a dosing volume of 10 ml/kg and served as a negative control. • c. Group 3: Overnight fasted diabetic mice received sitagliptin at a dose of 50 mg/kg in 1% CMC (in a volume of 10 ml/kg) and served as positive control. • a. Groups 4-17: Animals of these groups were overnight fasted diabetic mice received the tested compounds 128, 129, 130, 131, at a dose of 50 mg/kg in 1% CMC (volume of 10 ml/kg).

[2] = tested on: overnight fasted diabetic mice; assay: OGTT after multiple doses (6 consecutive days); settings: for AUC in OGTT, % change from diabetic control / AUC in OGTT, Δ from diabetic control / Relative potency to sitagliptin (OGTT AUC) / AUC in OGTT, X (arithmetic mean): 50 mg/kg oral for six days; for AUC in OGTT, X (arithmetic mean): 2 h before glucose loading, AUC 0-120 min
Method: The tested compounds were given daily by oral gavage for 6 consecutive days. On day 6, the overnight fasted diabetic mice were pretreated with the 6th oral dose of the tested compounds. Then an oral glucose was loaded (2 g/kg/10 ml b.w.) 2 h after drug treatment. Blood glucose levels were determined using the Accu-check Go® (Roche Diagnostics, Michigan, USA). Samples were collected just before drug administration (Fasting Blood glucose), then 2 h after drug treatment and before glucose administration. Sample collection was continued at 20, 40, 60 and 120 min intervals after glucose loading.
• b. Group 1: Animals of this group are 14 h overnight-fasted normoglycemic mice received the vehicle (1% CMC-Na) at a dosing volume of 10 ml/kg/day for six consecutive days. • c. Group 2: Overnight-fasted diabetic mice received the vehicle (1% CMC-Na) at a dosing volume of 10 ml/kg/day for six consecutive days and served as a negative control. • d. Group 3: Overnight-fasted diabetic mice received sitagliptin at a dose of 50 mg/kg/day for six consecutive days and served as positive control. • e. Groups 4-17: Animals in these groups were overnight-fasted diabetic mice and received the tested compounds 128, 129, 130, 131, at a dose of 50 mg/kg/day for six consecutive days (volume of 10 ml/kg). Effect on Blood Glucose Level after Introduction of Food for One Hour (≈Meal Tolerance Test) Rational of the Test

[3] = tested on: 14 h overnight-fasted diabetic mice; assay: Blood glucose after introduction of food for one hour (meal tolerance test); settings: for antihyperglycemic activity after introduction of food (blood glucose rise and total AUC(0-180), in words): 50 mg/kg, 3 h before introduction of food; for Area under the curve AUC(0-180) after meal feeding: Day 1, 50 mg/kg oral, 3 hr pretreated
Method: The rational of this test was to determine the ability of the tested compounds to modulate glucose utilization after the introduction of food, after 3 h of drug administration to 14 h overnight-fasted mice (feeding with normal diet was done for 1 hr only, then food was removed during the remaining time of the test). This model is analogous to oral glucose tolerance tests (OGTT) used clinically to evaluate glycemic control, except that the meal was composed of fats, proteins and carbohydrates, and thus was a more realistic representation of the nutritional makeup of normal food. The main purpose is that during meal digestion, food contents e.g. carbohydrates, proteins and fats, were reported to cause an increase in the production of the GLP-I from the L-cells in ileum and colon. The produced GLP-I goes into circulation directly and affects insulin secretion from pancreatic β-cells. Both the GPL-I and insulin levels are expected to be high especially in the presence of a […] inhibitor.
Animals were Distributed Between 17 Groups (n=6) as Follows: • a. Group 1. Animals of this group were overnight-fasted normoglycemic mice and received the vehicle (1% CMC-Na) at a volume of 10 ml/kg/day for 4 consecutive days. • b. Group 2: overnight-fasted diabetic mice received the vehicle (1% CMC-Na) at a volume of 10 ml/kg/day for 4 consecutive days and served as a negative control. • c. Group 3: overnight fasted diabetic mice received sitagliptin at a dose of 50 mg/kg/day for 4 consecutive days in 1% CMC (in a volume of 10 ml/kg) and served as positive control. • d. Groups 4-19: Animals of these groups were overnight-fasted diabetic mice and received the tested compounds 128, 129, 130, 131,140, 142 at a dose of 50 mg/kg/day for 4 consecutive days in 1% CMC (volume of 10 ml/kg). Food was introduced for one hour only then food was removed immediately. Blood glucose levels were determined just before and 3 h after drug administration and then at 0, 60, 120 and 180 min after meal. Blood Sampling and Blood Glucose Determination
as §1

Compound | activity in controlling the rise of blood glucose levels in streptozotocin diabetic animals (in words) (STZ-diabetic mice) | control of fasting blood sugar compared with sitagliptin and the other compounds (in words) (STZ-diabetic mice) | Blood glucose level, fasting (STZ-diabetic mice; Day 4) [mg/dL] | Blood glucose level, fasting (STZ-diabetic mice; Day 5) [mg/dL] | Blood glucose level, fasting (STZ-diabetic mice; Day 6) [mg/dL] | glucose-lowering activity in OGTT compared with sitagliptin (in words) [1] | Relative potency to sitagliptin (OGTT AUC) [1] | AUC in OGTT, % change from diabetic control ([1]; 2 h before glucose loading) [%] | AUC in OGTT, Δ from diabetic control ([1]; 2 h before glucose loading) [mg·min/dL] | AUC in OGTT, X (arithmetic mean) ([1]; 2 h before glucose loading) | AUC in OGTT, % change from diabetic control [2] [%] | AUC in OGTT, Δ from diabetic control [2] [mg·min/dL] | Relative potency to sitagliptin (OGTT AUC) [2] | AUC in OGTT, X (arithmetic mean) [2] | antihyperglycemic activity after introduction of food (blood glucose rise and total AUC(0-180), in words) [3] | Area under the curve AUC(0-180) after meal feeding [3] | control of fasting blood sugar compared with sitagliptin and the other compounds (in words) (STZ-diabetic mice; listed as 131) | relative potency in OGTT compared with sitagliptin (in words) ([2]; 6 consecutive days, 50 mg/kg) | reduction in the total AUC compared to the diabetic control mice ([1]; single dose, 2 h before glucose loading, AUC 0-120) [%]
O=C(NCC(=O)N1CCn2c(nnc2C(F)(F)F)C1)c1cccc(Cl)c1 [GLP-128] | significant activity | least effective | 195.00 ± 27.49 | 200.60 ± 23.21 | 188.60 ± 15.86 | higher glucose-lowering activity than sitagliptin | 1.2 | −29.15 | -14887 | 36178* mg · dL^−1 · min | −11.93 | -6287 | 0.32 | 46368 mg·min/dL | significant antihyperglycemic activity | 69336 ± mg · dL^−1 · min |  |  | 
O=C(NCCC(=O)N1CCn2c(nnc2C(F)(F)F)C1)c1cccc(Cl)c1 [GLP-129] | significant activity | comparable to that of sitagliptin |  |  |  | less potent than sitagliptin | 0.45 | −10.93 | -5585 | 45480 mg·min/dL | −11.76 | -6197 | 0.31 | 46458 mg·min/dL | significant antihyperglycemic activity | 73248 ± mg · dL^−1 · min |  |  | 
O=C(NCC(=O)N1CCn2c(nnc2C(F)(F)F)C1)c1ccc(Cl)cc1 [GLP-131] | significant activity | most consistent and extended activities |  |  |  | higher glucose-lowering activity than sitagliptin | 1.52 | −36.88 | -18835 | 32230* mg · dL^−1 · min | −49.59 | -26113 | 1.31 | 26542* mg · dL^−1 · min | significant antihyperglycemic activity | 56340 ± mg · dL^−1 · min | comparable to that of sitagliptin | comparable or higher relative potency than sitagliptin | 
N[C@@H](CC(=O)N1CCn2c(nnc2C(F)(F)F)C1)Cc1cc(F)c(F)cc1F [Sitagliptin, sitagliptin, reference compound] |  |  |  |  |  |  | 1 | −24.20 | -12362 | 38703* mg · dL^−1 · min | −37.85 | -19932 | 1 | 32723 mg·min/dL | significant antihyperglycemic activity | 51776 ± mg · dL^−1 · min |  |  | 24.2
